Test results published in patent US10512644B2, “Oligomer-opioid agonist conjugates” (Nektar Therapeutics, priority 2007, dated 2019).
Where two headings read alike, the source gives them in different places.

Legend:
[1] = biological target: T1, recombinant human kappa opioid receptor (Homo sapiens (Human), UniProt P41145); test: biochemical; details: agonist mode; read-out: Kappa Agonist EC50, GTP-γS Binding
Experimental: (§4) The reaction is initiated by 0.3 nM [^35S]GTPγS for an additional 30 minutes incubation period. Test compound-induced increase of [^35S]GTPγS binding by 50 percent or more (≥50%) relative to the receptor subtype-specific agonist response indicates possible opiate receptor agonist activity.

in vivo = details: rat, iv, 25 mg/kg
mu opioid receptor [2] = biological target: T2, mu opioid receptor (Homo sapiens (Human), UniProt P35372); test: biochemical; details: antagonist mode vs 1 μM DAMGO; read-out: Mu Antagonist IC50, GTP-γS Binding
Experimental: as §4

[3] = biological target: T1, recombinant human kappa opioid receptor; test: cell-based; type: binding; details: whole CHO cells, 0.5 nM 3H Diprenorphine; read-out: Ki at KAPPA receptors
Experimental: (§1) Using conventional receptor binding assay techniques, several molecules were assayed to determine binding activity at kappa, mu and delta opioid subtypes of opioid receptors.
(§2) Cells were plated in 24 well plates at a density of 0.2-0.3*10^6 cells/well and washed with assay buffer containing 50 mM Tris.HCl and 5 mM MgCl2 (pH 7.4). Competition binding assays were conducted in whole cells incubated with increasing concentrations of test compounds in the presence of appropriate concentration of radioligand. 0.5 nM ^3H Naloxone, 0.5 nM ^3H Diprenorphine and 0.5 nM ^3H DPDPE were used as the competing radioligands for mu, kappa and delta receptors respectively. Incubations were carried out for two hours at room temperature using triplicate wells at each concentration. At the end of the incubation, cells were washed with 50 mM Tris HCl (pH 8.0), solubilized with NaOH and bound radioactivity was measured using a scintillation counter.
(§3) Specific binding is determined by subtraction of the cpm bound in the presence of 50-100× excess of cold ligand. Binding data assays were analyzed using GraphPad Prism 4.0 and IC50 is generated by non-linear regression from dose-response curves.

mu opioid receptor [4] = biological target: T2, mu opioid receptor; test: cell-based; type: binding; details: whole CHO cells, 0.5 nM 3H Naloxone; read-out: Ki at MU Receptors
Experimental: as §1, §2, §3

[5] = biological target: recombinant human delta opioid receptor (Homo sapiens (Human), UniProt P41143); test: Radioligand competition binding in whole CHO cells, delta opioid receptor (3H DPDPE)
Experimental: as §1, §2, §3

[6] = system: CD-1 male mice (phenylquinone-induced writhing, visceral pain); test: Phenylquinone writhing analgesic assay; type: in vivo; details: mPEGn-O-HydroxyCodone series, writhing 35-45 min after pretreatment
Experimental: Mice were treated according to standard protocols. Mice were given a single “pretreatment” dose of a compound lacking covalent attachment of a water-soluble, non-peptidic oligomer (i.e., non-PEG oligomer-modified parent molecule), a corresponding version comprising the compound covalently attached to a water-soluble, non-peptidic oligomer (i.e., the conjugate), or control solution (IV, SC, IP or orally) thirty minutes prior to the administration of the phenylquinone (PQ) solution. Each animal was given an IP injection of an irritant (phenylquinone, PQ) that induces “writhing” which may include: contractions of the abdomen, twisting and turning of the trunk, arching of the back, and the extension of the hindlimbs. Each animal was given an IP injection of PQ (1 mg/kg PQ, 0.1 mL/10 g bodyweight). After the injection, the animals were returned to their observation enclosure and their behavior was observed. Contractions were counted between 35 and 45 minutes after the “pretreatment”. The animals were used once. Each tested article was dosed at a range between 0.1 and 100 mg/kg (n=5-10 animals/dose).

mu opioid receptor [7] = biological target: T2, mu opioid receptor; type: binding; details: mean IC50 ratio, ↓ = lower affinity
Experimental: Using conventional in vitro mu opioid receptor binding affinity assays, IC50 values were determined for each of alpha-6-mPEGn-O-hydrocodonol compounds.

[8] = Plasma pharmacokinetics after intravenous dosing in male Sprague-Dawley rats; details: IV 1 mg/kg, PEGylated hydroxycodone
[9] = biological target: cloned human mu opioid receptor (Homo sapiens (Human), UniProt P35372); type: cell-based; details: inhibition of cAMP formation, 3 μM forskolin, whole cells
Experimental: The efficacy of the various PEG-opioid conjugates was measured by their ability to inhibit cAMP formation following receptor activation. Studies were conducted in CHO cells heterologously expressing the cloned human mu, kappa or delta opioid receptors. cAMP was measured using a cAMP HiRange homogenous time-resolved fluorescence assay (HTRF Assay), that is based on a competitive immunoassay principle (Cisbio, Cat.#62AM6PEC).
Briefly, suspensions of cells expressing either the mu, kappa or delta opioid receptors were prepared in buffer containing 0.5 mM isobutyl-methyl xanthine (IBMX). […] EC50 values were calculated for each compound from a sigmoidal dose-response plot of concentrations versus maximum response. To determine if the compounds behaved as full or partial agonists in the system, the maximal response at the highest tested concentrations of compounds were compared to that produced by a known full agonist.

recombinant human delta opioid receptor, sequence (P41143 whole entry, looked up): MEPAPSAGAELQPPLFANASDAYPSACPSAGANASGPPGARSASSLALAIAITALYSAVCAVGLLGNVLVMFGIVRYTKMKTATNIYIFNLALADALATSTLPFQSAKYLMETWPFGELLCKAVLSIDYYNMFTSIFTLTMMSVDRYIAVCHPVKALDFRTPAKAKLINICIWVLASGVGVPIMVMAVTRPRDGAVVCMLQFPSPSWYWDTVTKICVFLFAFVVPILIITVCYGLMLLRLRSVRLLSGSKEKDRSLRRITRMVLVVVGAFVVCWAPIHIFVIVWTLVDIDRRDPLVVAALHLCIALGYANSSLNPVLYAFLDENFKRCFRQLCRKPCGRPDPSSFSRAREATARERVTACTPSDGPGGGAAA

Work on `COCCOCCOCCO[C@H]1CC[C@@]2(O)[C@H]3Cc4ccc(O)c5c4[C@@]2(CCN3CC2CCC2)[C@H]1O5` [6-O-mPEG3-Nalbuphine, 6-O-mPEG3-nalbuphine] yielded an EC50 [1] of 26.8 nM, a Kp at 1 h (in vivo) of 0.23 and an IC50 (mu opioid receptor [2]) of 398 nM. The Ki [3] was 218 nM, the Ki (mu opioid receptor [4]) was 27.4 nM and the Ki [5] was 163 nM.
Work on `COCCOCCOCCOCCO[C@H]1CC[C@@]2(O)[C@H]3Cc4ccc(O)c5c4[C@@]2(CCN3CC2CCC2)[C@H]1O5` [6-O-mPEG4-Nalbuphine, 6-O-mPEG4-nalbuphine] yielded a Ki (mu opioid receptor [4]) of 17.5 nM and a Ki [5] of 149 nM.
Compound `COc1ccc2c3c1O[C@H]1C(=O)CC[C@@]4(O)[C@@H](C2)N(C)CC[C@]314` [Oxycodone, oxycodone, reference compound] has an ED50 ([6]; Mus musculus, read-out: ED50) of 0.619 mg/kg.
In the case of `COc1ccc2c3c1O[C@H]1[C@@H](O)CC[C@H]4[C@@H](C2)N(C)CC[C@@]341` [α-6-Hydrocodonol, 6-hydrocodonol, reference compound], the “Fold Change vs. Hydrocodone” value (mu opioid receptor [7]) is reported as 7.50 ↓.
With `COCCO[C@H]1CC[C@H]2[C@H]3Cc4ccc(OC)c5c4[C@@]2(CCN3C)[C@H]1O5` [α-6-mPEG1-O-Hydrocodonol] the “Fold Change vs. Hydrocodone” value (mu opioid receptor [7]) was 6.03 ↓.
For `COCCO[C@H]1CC[C@@]2(O)[C@H]3Cc4ccc(OC)c5c4[C@@]2(CCN3C)[C@H]1O5` [α-6-mPEG1-O-Hydroxycodone, α-6-mPEG1-O-hydroxycodone], the ED50 [6] was 6.064 mg/kg and the “mean exposure (AUC) as compared to oxycodone” value [8] was “slightly lower mean exposure”.
For `COCCOCCO[C@H]1CC[C@H]2[C@H]3Cc4ccc(OC)c5c4[C@@]2(CCN3C)[C@H]1O5` [α-6-mPEG2-O-Hydrocodonol], the “Fold Change vs. Hydrocodone” value (mu opioid receptor [7]) was 5.84 ↓.
For `COCCOCCO[C@H]1CC[C@@]2(O)[C@H]3Cc4ccc(OC)c5c4[C@@]2(CCN3C)[C@H]1O5` [α-6-mPEG2-O-Hydroxycodone, α-6-mPEG2-O-hydroxycodone], the “mean exposure (AUC) as compared to oxycodone” value [8] was “slightly lower mean exposure”.
In the case of `COCCOCCOCCO[C@H]1CC[C@H]2[C@H]3Cc4ccc(OC)c5c4[C@@]2(CCN3C)[C@H]1O5` [α-6-mPEG3-O-Hydrocodonol], the “Fold Change vs. Hydrocodone” value (mu opioid receptor [7]) is reported as 5.87 ↓.
With `COCCOCCOCCOCCO[C@H]1CC[C@H]2[C@H]3Cc4ccc(OC)c5c4[C@@]2(CCN3C)[C@H]1O5` [α-6-mPEG4-O-Hydrocodonol] the “Fold Change vs. Hydrocodone” value (mu opioid receptor [7]) was 7.14 ↓.
In the case of `COCCOCCOCCOCCO[C@H]1CC[C@@]2(O)[C@H]3Cc4ccc(OC)c5c4[C@@]2(CCN3C)[C@H]1O5` [α-6-mPEG4-O-Hydroxycodone, α-6-mPEG4-O-hydroxycodone], the ED50 [6] is reported as 17.31 mg/kg and the “mean exposure (AUC) as compared to oxycodone” value [8] is reported as “slightly lower mean exposure”.
For `COCCOCCOCCOCCOCCO[C@H]1CC[C@H]2[C@H]3Cc4ccc(OC)c5c4[C@@]2(CCN3C)[C@H]1O5` [α-6-mPEG5-O-Hydrocodonol], the “Fold Change vs. Hydrocodone” value (mu opioid receptor [7]) was 6.20 ↓.
With `COCCOCCOCCOCCOCCOCCO[C@H]1CC[C@H]2[C@H]3Cc4ccc(OC)c5c4[C@@]2(CCN3C)[C@H]1O5` [α-6-mPEG6-O-Hydrocodonol] the “Fold Change vs. Hydrocodone” value (mu opioid receptor [7]) was 11.12 ↓.
In the case of `COCCOCCOCCOCCOCCOCCO[C@H]1CC[C@@]2(O)[C@H]3Cc4ccc(OC)c5c4[C@@]2(CCN3C)[C@H]1O5` [α-6-mPEG6-O-Hydroxycodone, α-6-mPEG6-O-hydroxycodone], the “mean exposure (AUC) as compared to oxycodone” value [8] is reported as “comparable mean exposure”.
With `COCCOCCOCCOCCOCCOCCOCCO[C@H]1CC[C@H]2[C@H]3Cc4ccc(OC)c5c4[C@@]2(CCN3C)[C@H]1O5` [α-6-mPEG7-O-Hydrocodonol] the “Fold Change vs. Hydrocodone” value (mu opioid receptor [7]) was 26.32 ↓.
In the case of `COCCOCCOCCOCCOCCOCCOCCO[C@H]1CC[C@@]2(O)[C@H]3Cc4ccc(OC)c5c4[C@@]2(CCN3C)[C@H]1O5` [α-6-mPEG7-O-Hydroxycodone, α-6-mPEG7-O-hydroxycodone], the “mean exposure (AUC) as compared to oxycodone” value [8] is reported as “higher mean exposure”.
For `COCCOCCOCCOCCOCCOCCOCCOCCO[C@H]1CC[C@H]2[C@H]3Cc4ccc(OC)c5c4[C@@]2(CCN3C)[C@H]1O5` [α-6-mPEG8-O-Hydrocodonol], the “Fold Change vs. Hydrocodone” value (mu opioid receptor [7]) was 40.10 ↓.
For `COCCOCCOCCOCCOCCOCCOCCOCCOCCO[C@H]1CC[C@H]2[C@H]3Cc4ccc(OC)c5c4[C@@]2(CCN3C)[C@H]1O5` [α-6-mPEG9-O-Hydrocodonol], the “Fold Change vs. Hydrocodone” value (mu opioid receptor [7]) was 16.30 ↓.
α-6-hydroxycodone gave an EC50 [9] of 3160 nM.
